Here are results for 16 compounds from patent publication US9586952B2, “Polycyclic estrogen receptor modulators and uses thereof” (SERAGON PHARMACEUTICALS, INC., priority 2013, dated 2017).

Experiment [1] concerns MCF-7 cells. Description: MCF7 Viability Assay (Breast Cancer Cell Viability Assay). The settings on record: 5 days' compound exposure, CellTiter-Glo; for IC50: Homo sapiens, MCF7, 120 h. It counts as cell-based. Here is the method: MCF-7 cells were adjusted to a concentration of 20,000 cells per mL in RPMI containing 10% FBS and 20 mM HEPES. 16 microliters of the cell suspension (320 cells) was added to each well of a 384 well plate, and the cells were incubated overnight to allow the cells to adhere. The following day an eleven point, serial semilog dilution of each compound was added to the cells in 16 μL at a final concentration ranging from 0.3-0.000003 μM. After 5 days' compound exposure, 16 μL of CellTiter-GLo (Promega, Madison Wis.) was added to the cells, and the relative luminescence units (RLUs) of each well were determined. CellTiter-Glo added to 32 μL of medium without cells was used to obtain a background value. The Percent viability of each sample was determined as follows: (RLU sample-RLU background/RLU untreated cells-RLU background)×100=% viability.

The target of experiment [2] is T1, ER-α (Homo sapiens, UniProt P03372).
T1 construct: endogenous in cells; host or cells: MCF-7
T1 sequence (P03372 1-595): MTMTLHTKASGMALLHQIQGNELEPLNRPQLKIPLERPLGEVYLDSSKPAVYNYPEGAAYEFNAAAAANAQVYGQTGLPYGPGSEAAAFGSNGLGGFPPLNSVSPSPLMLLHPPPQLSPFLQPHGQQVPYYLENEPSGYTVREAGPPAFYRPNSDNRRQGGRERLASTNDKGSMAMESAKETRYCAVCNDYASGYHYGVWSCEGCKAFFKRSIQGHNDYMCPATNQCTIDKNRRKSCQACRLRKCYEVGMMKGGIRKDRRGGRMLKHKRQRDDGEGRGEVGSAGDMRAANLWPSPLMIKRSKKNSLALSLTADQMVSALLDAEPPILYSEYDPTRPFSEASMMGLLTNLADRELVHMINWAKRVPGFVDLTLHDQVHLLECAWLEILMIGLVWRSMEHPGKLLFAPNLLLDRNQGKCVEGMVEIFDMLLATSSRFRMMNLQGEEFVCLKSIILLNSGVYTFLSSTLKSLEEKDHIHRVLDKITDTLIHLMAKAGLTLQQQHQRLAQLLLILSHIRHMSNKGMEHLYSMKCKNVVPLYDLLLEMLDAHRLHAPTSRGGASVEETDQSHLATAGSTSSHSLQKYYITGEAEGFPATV
The experiment in a line: Breast Cancer Cell ER-α In Cell Western Assay (SP1). The experiment is classed as cell-based. The settings on record: MCF-7 cells, 4 or 24 hr post compound addition, SP1 antibody; for Emax: MCF7, read-out: ER-α In Cell Western Assay (SP1) Max Response; for DC50: read-out: ER-α In Cell Western Assay (SP1) IC50. The protocol: MCF-7 cells were adjusted to a concentration of 200,000 cells per mL in RPMI containing 10% charcoal-stripped FBS and 20 mM HEPES. 16 microliters of the cell suspension (3200 cells) was added to each well of a poly-D-lysine 384 well plate, and the cells were incubated overnight to allow the cells to adhere. The following day an eleven point, serial semilog dilution of each compound was added to the cells in 16 μL at a final concentration ranging from 0.3-0.000003 μM. At 4 or 24 hr post compound addition, the cells were fixed (10% formalin in PBS) for 20 minutes. Cells were permeablized in PBS 0.1% Triton and blocked with LICOR blocking buffer (50 μl/well, 90′). The wells were then incubated overnight at 4° C. with SP1 rabbit monoclonal Ab (Thermo Scientific) diluted 1:1000 in LICOR blocking buffer/0.1% Tween-20. Wells which were treated with blocking buffer with Tween but no antibody were used as a background control. Wells were washed with 0.1% Tween-20/PBS and then incubated in goat anti-rabbit IRDye™ 800 CW (LICOR Inc.; 1:10000) and DRAQ5 DNA dye (1:2000 for 2 mM stock) diluted in LICOR blocking buffer containing 0.1% Tween-20 and 0.01% SDS for 60 minutes. Cells were washed (50 μl/well, 5′ each) in 0.1% Tween-20/PBS. Plates were scanned on a LICOR Odyssey infrared imaging system. Integrated intensities in the 800 nm channel and 700 nm channel were measured to determine levels of ER and DNA respectively. Percent ER levels were determined as follows: (Integrated intensity 800 nm sample/integrated intensity 700 nm sample)/(Integrated intensity 800 nm untreated cells/integrated intensity 700 nm untreated cells)×100=% ER levels.

Take `CC/C(=C(/c1ccc(/C=C/C(=O)O)cc1)c1ccc(-n2ccnc2)cc1)c1ccccc1` [Example 17, (E)-3-(4-((E)-1-(4-(1H-Imidazol-1-yl)phenyl)-2-phenylbut-1-en-1-yl)phenyl)acrylic acid]: in experiment [1], the “MCF7 Viability Assay Max Response” value is recorded as “++ (++ = a single % value ≧ 40%)” and the IC50 was above 100 nM. Further, in experiment [2], the Emax is at least 40% and the DC50 is above 100 nM.

For the compound `CC/C(=C(/c1ccc(/C=C/C(=O)O)cc1)c1ccc(-c2cnco2)cc1)c1ccccc1` [Example 18, (E)-3-(4-((E)-1-(4-(Oxazol-5-yl)phenyl)-2-phenylbut-1-en-1-yl)phenyl)acrylic acid], in experiment [1], the “MCF7 Viability Assay Max Response” value is reported as “++ (++ = a single % value ≧ 40%)” and the IC50 was at most 100 nM. For the same compound, in experiment [2], the Emax is at least 40% and the DC50 is at most 100 nM.

Take `CC/C(=C(/c1ccc(/C=C/C(=O)O)cc1)c1ccc(-c2cnn(C)c2)cc1)c1ccccc1` [Example 19, (E)-3-(4-((E)-1-(4-(1-Methyl-1H-pyrazol-4-yl)phenyl)-2-phenylbut-1-en-1-yl)phenyl)acrylic acid]: in experiment [1], the “MCF7 Viability Assay Max Response” value is given as “++ (++ = a single % value ≧ 40%)” and the IC50 is at most 100 nM. In addition, in experiment [2], the Emax was at least 40% and the DC50 is at most 100 nM.

With `CC/C(=C(/c1ccc(/C=C/C(=O)O)cc1)c1ccc(-c2cncs2)cc1F)c1ccccc1` [Example 20, (E)-3-(4-((E)-1-(2-Fluoro-4-(thiazol-5-yl)phenyl)-2-phenylbut-1-en-1-yl)phenyl)acrylic acid], in experiment [1], the “MCF7 Viability Assay Max Response” value was “++ (++ = a single % value ≧ 40%)” and the IC50 was at most 100 nM. For the same compound, in experiment [2], the Emax was at least 40% and the DC50 was at most 100 nM.

For the compound `CC/C(=C(/c1ccc(/C=C/C(=O)O)cc1)c1ccc(-c2cncs2)c(F)c1)c1ccccc1` [Example 21, (E)-3-(4-((E)-1-(3-Fluoro-4-(thiazol-5-yl)phenyl)-2-phenylbut-1-en-1-yl)phenyl)acrylic acid], in experiment [1], the “MCF7 Viability Assay Max Response” value was “++ (++ = a single % value ≧ 40%)” and the IC50 is at most 100 nM. Besides, in experiment [2], the Emax is at least 40% and the DC50 is at most 100 nM.

Turning to `CC/C(=C(/c1ccc(/C=C/C(=O)O)cc1)c1ccc(-c2cn[nH]c2)cc1)c1ccccc1` [Example 22, (E)-3-(4-((E)-1-(4-(1H-Pyrazol-4-yl)phenyl)-2-phenylbut-1-en-1-yl)phenyl)acrylic acid], in experiment [1], the “MCF7 Viability Assay Max Response” value was “++ (++ = a single % value ≧ 40%)” and the half-maximal inhibitory concentration (IC50) is at most 100 nM. Moreover, in experiment [2], the Emax was at least 40% and the DC50 is at most 100 nM.

For the compound `CC/C(=C(/c1ccc(/C=C/C(=O)O)cc1)c1ccc(N2CCN(C)CC2)cc1)c1ccccc1` [Example 23, (E)-3-(4-((E)-1-(4-(4-Methylpiperazin-1-yl)phenyl)-2-phenylbut-1-en-1-yl)phenyl)acrylic acid], in experiment [1], the “MCF7 Viability Assay Max Response” value is recorded as “++ (++ = a single % value ≧ 40%)” and the IC50 is above 100 nM. Further, in experiment [2], the Emax is at least 40% and the DC50 is at most 100 nM.

For the compound `CC/C(=C(/c1ccc(/C=C/C(=O)O)cc1)c1ccc(N2CCCCC2)cc1)c1ccccc1` [Example 24, (E)-3-(4-((E)-2-Phenyl-1-(4-(piperidin-1-yl)phenyl)but-1-en-1-yl)phenyl)acrylic acid], in experiment [1], the “MCF7 Viability Assay Max Response” value is “++ (++ = a single % value ≧ 40%)” and the IC50 is above 100 nM. In experiment [2], the Emax was at least 40% and the DC50 is above 100 nM.

In the case of `O=C(O)/C=C/c1ccc(/C(=C(\c2ccccc2)C2CCC2)c2ccc(-c3cncs3)cn2)cc1` [Example 25, (E)-3-(4-((E)-2-Cyclobutyl-2-phenyl-1-(5-(thiazol-5-yl)pyridin-2-yl)vinyl)phenyl)acrylic acid], in experiment [1], the “MCF7 Viability Assay Max Response” value is on record as “++ (++ = a single % value ≧ 40%)” and the IC50 is above 100 nM. Besides, in experiment [2], the Emax is at least 40% and the DC50 was above 100 nM.

Take `O=C(O)/C=C/c1ccc(/C(=C(\c2ccccc2)C2CCC2)c2cccc(-c3cn[nH]c3)c2)cc1` [Example 26, (E)-3-(4-((E)-1-(3-(1H-Pyrazol-4-yl)phenyl)-2-cyclobutyl-2-phenylvinyl)phenyl)acrylic acid]: in experiment [1], the “MCF7 Viability Assay Max Response” value is listed as “+ (+ = a single % value < 40%)” and the IC50 is above 100 nM. Besides, in experiment [2], the Emax is at least 40% and the DC50 was above 100 nM.

For the compound `O=C(O)/C=C/c1ccc(/C(=C(\c2ccccc2)C2CCC2)c2ccc(-c3ccon3)cc2)cc1` [Example 27, (E)-3-(4-((E)-2-Cyclobutyl-1-(4-(isoxazol-3-yl)phenyl)-2-phenylvinyl)phenyl)acrylic acid], in experiment [1], the “MCF7 Viability Assay Max Response” value was “++ (++ = a single % value ≧ 40%)” and the IC50 is at most 100 nM. Moreover, in experiment [2], the Emax was at least 40% and the DC50 is at most 100 nM.

As to `CC/C(=C(/c1ccc(/C=C/C(=O)O)cc1)c1ccc(-c2cncs2)cc1)c1ccncc1Cl` [Example 28, (E)-3-(4-((E)-2-(3-Chloropyridin-4-yl)-1-(4-(thiazol-5-yl)phenyl)but-1-en-1-yl)phenyl)acrylic acid], in experiment [1], the “MCF7 Viability Assay Max Response” value was “++ (++ = a single % value ≧ 40%)” and the IC50 was at most 100 nM. Besides, in experiment [2], the Emax was at least 40% and the DC50 is at most 100 nM.

In the case of `CC/C(=C(/c1ccc(/C=C/C(=O)O)cc1)c1ccc(-c2cncs2)cc1)c1ccccc1Cl` [Example 29, (E)-3-(4-((E)-2-(2-Chlorophenyl)-1-(4-(thiazol-5-yl)phenyl)but-1-en-1-yl)phenyl)acrylic acid], in experiment [1], the “MCF7 Viability Assay Max Response” value is “++ (++ = a single % value ≧ 40%)” and the IC50 was at most 100 nM. In experiment [2], the Emax is at least 40% and the DC50 is at most 100 nM.

Turning to `CC/C(=C(/c1ccc(/C=C/C(=O)O)cc1)c1ccc(-c2cncs2)cc1)c1cccc(OC)c1` [Example 30, (E)-3-(4-((E)-2-(3-Methoxyphenyl)-1-(4-(thiazol-5-yl)phenyl)but-1-en-1-yl)phenyl)acrylic acid], in experiment [1], the “MCF7 Viability Assay Max Response” value is recorded as “++ (++ = a single % value ≧ 40%)” and the IC50 was at most 100 nM. Besides, in experiment [2], the Emax is at least 40% and the DC50 is at most 100 nM.

In the case of `CC/C(=C(/c1ccc(/C=C/C(=O)O)cc1)c1ccc(-c2cncs2)cc1)c1ccc2occc2c1` [Example 31, (E)-3-(4-((E)-2-(Benzofuran-5-yl)-1-(4-(thiazol-5-yl)phenyl)but-1-en-1-yl)phenyl)acrylic acid], in experiment [1], the “MCF7 Viability Assay Max Response” value is recorded as “++ (++ = a single % value ≧ 40%)” and the IC50 is at most 100 nM. In experiment [2], the Emax is at least 40% and the DC50 is at most 100 nM.

In the case of `CC/C(=C(/c1ccc(/C=C/C(=O)O)cc1)c1ccc(-c2cncs2)cc1)c1cscc1C` [Example 32, (E)-3-(4-((E)-2-(4-Methylthiophen-3-yl)-1-(4-(thiazol-5-yl)phenyl)but-1-en-1-yl)phenyl)acrylic acid], in experiment [1], the “MCF7 Viability Assay Max Response” value is listed as “++ (++ = a single % value ≧ 40%)” and the IC50 was at most 100 nM. Also, in experiment [2], the Emax is at least 40% and the DC50 was at most 100 nM.

Usually IC50 stands for the concentration needed to halve the response being measured. A higher IC50 goes with a need for much substance.
